According to patent US20240115622A1, “FORMULATION FOR THE PREVENTION AND/OR TREATMENT OF COVID-19” (priority 2022, published 2024):
Like-named read-outs stand apart in the source and are kept apart here.

Columns and labels:
porcine coronavirus PEDV = test: PEDV infection of Vero E6 cells, antiviral activity by CPE
VERO E6 cells [1] = test: cytotoxicity of the compounds on Vero E6 cells
[2] = tested on: human respiratory coronavirus OC43; test: HCT-8 cells infected with human respiratory coronavirus OC43, antiviral effect (CPE, WST-1); format: cell-based
VERO E6 cells [3] = tested on: VERO E6 cells

Compound	visual scores of the CPE, effect against PEDV infection (porcine coronavirus PEDV; FIG. 1, 3 days post infection, PEDV-infected Vero E6 cells, low concentrations)	low concentration with protective effect against PEDV infection (below the cytotoxic concentrations) (porcine coronavirus PEDV; Vero E6 cells, medium with 2% FBS, speculated, to be better sustained) [%]	PEDV induced cytotoxicity (porcine coronavirus PEDV; medium without FBS, high concentrations of the compound)	cytotoxicity, effect of low concentration of FBS (VERO E6 cells [1]; medium supplemented with 2% FBS)	cytotoxicity (VERO E6 cells [1]; medium without FBS)	time for which a significant effect was sustained ([2]; after 2 hours of treatment exposure) [days]	concentration with optimal effect in protecting cells from coronaviral infection ([2]; overall conclusion of the coronavirus experiments) [%]	cytotoxicity (VERO E6 cells [3])	cytotoxicity, effect of low concentration of FBS (VERO E6 cells [3])
OC[C@@H](O)[C@H](O)[C@@H](O)CO [xylitol]	protective effects	≤ 3	higher	significantly decreased	very high	4	0.5	–	–
propolis	–	–	–	–	–	–	–	very high	significantly decreased
